Experimental findings from US20220088195A1, “Prevention or mitigation of T-cell bispecific antibody-related adverse effects” (Hoffmann-La Roche Inc., priority 2020, published 2022) are described below.

The subject of one experiment is CD4+ and CD8+ T cells. In words: T cell degranulation, CD107a staining by FACS at 24h, SKM-1 + HLA-A2 WT-1-TCB. The experiment is classed as cell-based, human. The procedure: FIG. 13. In vitro killing assay set-up and timelines to assess T cell degranulation. PBMCs were co-cultured with SKM-1 target cells (E:T=5:1) and 10 nM HLA-A2 WT-1-TCB in the presence and absence of 100 nM dasatinib. Golgistop and Golgiplug (both BD) and CD107a antibody were added 3 hours after activation with TCB to prevent cytokine externalization.
FIG. 14. CD107a+ populations among CD4+ and CD8+ T cells in the presence and absence of dasatinib for one representative donor, in the assay of FIG. 13. Expression of CD107a on CD4+ and CD8+ T cells was measured by FACS at 24h.
FIG. 15. Percentages of CD107a+ cells among CD4+ (A) and CD8+ (B) T cells in the presence and absence of dasatinib in the assay of FIG. 13. Expression of CD107a on CD4+ and CD8+ T cells was measured by FACS at 24h. Mean of 3 donors+/−SD.
To assess whether dasatinib can efficiently prevent TCB-mediated target cell killing by activated T cells, we set up an in vitro killing assay with two stimulation steps, mimicking an ON/OFF switch. During the first stimulation, PBMCs were activated on carboxyfluorescein succinimidyl ester (CFSE)-labelled SKM-1 tumors cells with HLA-A2 WT-1-TCB in the absence of dasatinib (ON). During the second stimulation, activated PBMCs together with dead CFSE labelled SKM-1 tumors cells were washed and re-stimulated by HLA-A2 WT-1-TCB on fresh CTV labelled SKM-1 tumor cells in the presence of 100 nM dasatinib (OFF). The use of CFSE and CTV labelled SKM-1 tumors allowed to differentiate tumor cells used for first and second stimulation by flow cytometry (FIG. 8). […] Consistently, T cells were activated and functional before the addition of dasatinib in the system. 87.6% of CTV labelled SKM-1 cells were alive upon second stimulation with 10 nM HLA-A2 WT-1 TCB in the presence of 100 nM dasatinib, but only 2.04% of CTV labelled SKM-1 tumor cells were alive upon restimulation with 10 nM HLA-A2 WT-1-TCB in the absence of dasatinib (FIG. 10). […]

For experiment [1], the system named is IFN-γ, IL-2 and TNF-α release. Nature of the experiment: Cytokine levels in supernatants of the reversibility assay (Luminex). The experiment is classed as cell-based, human. On the procedure:
FIG. 18. […] Cytokines ((A) IFN-γ, (B) IL-2, (C) TNF-α) were measured with a multiplex cytokine kit (Luminex technology). 1 donor.
FIG. 20. Cytokine levels in the supernatants of the assay after first stimulation in the absence of 25 nM dasatinib and after second stimulation in the presence of 25 nM dasatinib, in the assay of FIG. 16 (“ON/OFF”). Cytokines ((A) IFN-γ, (B) IL-2, (C) TNF-α) were measured with a multiplex cytokine kit (Luminex technology). 1 donor.
FIG. 22. Cytokine release. Supernatants were collected after first and second stimulation in the assay of FIG. 16 and cytokines ((A) TNF-α, (B) IFN-γ, (C) IL-2) measured using a multiplex cytokine kit (Luminex).
We then verified if dasatinib's effect is reversible upon its removal. Therefore we set-up a killing assay with two and three stimulations in the presence and absence of dasatinib and followed the killing kinetics using an Incucyte® system (FIG. 16). After each stimulation, effector cells were washed and re-stimulated on fresh MKN45 NLR target cells with 1 nM CEA TCB in the presence and absence of dasatinib allowing to mimic OFF/ON switch and ON/OFF/ON switch.
Lastly, we evaluated if the effect of dasatinib was reversible on activated T cells. Consequently, we supplemented the media with 25 nM dasatinib upon the second stimulation with 1 nM CEA-TCB to prevent killing from activated T cells and then removed the dasatinib upon third stimulation with 1 nM CEA-TCB to verify if killing would be restored.
We were curious to see if low doses of dasatinib could prevent cytokine release while minimally affecting TCB-efficacy upon first stimulation. In killing assays as described in FIG. 16, the cytokine levels upon first treatment with 1 nM CEA-TCB in the presence of 6.25 nM and 12.5 nM dasatinib and upon second treatment with 1 nM CEA-TCB in the absence of dasatinib were measured in the supernatants.

Where [2] appears, read: 10 nM HLA-A2 WT-1-TCB + 100 nM dasatinib, 24h, one representative donor.

Turning to `Cc1nc(Nc2ncc(C(=O)Nc3c(C)cccc3Cl)s2)cc(N2CCN(CCO)CC2)n1` [dasatinib, N-(2-chloro-6-methylphenyl)-2-[[6-[4-(2-hydroxyethyl)-1-piperazinyl]-2-methyl-4-pyrimidinyl]amino]-5-thiazole carboxamide monohydrate], in the experiment with CD4+ and CD8+ T cells (setting [2]), the “cells positive for CD107a among CD4+ T cells” value is recorded as 1.22% and the “cells positive for CD107a among CD8+ T cells” value is given as 2.08%. In the experiment with CD4+ and CD8+ T cells (100 nM dasatinib, 3 donors), the “TCB-induced CD107a expression on CD4+ and CD8+ T cells” value was “prevented”. For the same compound, the “release of IFN-γ, IL-2 and TNF-α during first stimulation” value in experiment [1] (6.25 nM and 12.5 nM dasatinib, 1 nM CEA-TCB) is “lowered the release”. Besides, the “release of IFN-γ, IL-2 and TNF-α (ON/OFF)” value in experiment [1] (25 nM dasatinib upon second stimulation, 1 nM CEA-TCB) is “prevented the release”. Moreover, the “T-cell derived cytokine release (IFN-γ, IL-2, TNF-α) after first stimulation” value in experiment [1] (25 nM dasatinib, 1 nM CEA-TCB) is given as “full inhibition”. Besides, the “levels of TNF-α, IL-2 and IFN-γ during second stimulation” value in experiment [1] (dasatinib (6.25 nM, 12.5 nM) removed) is on record as “remained low”. The “release of IFN-γ, IL-2 and TNF-α after removal of dasatinib and restimulation” value in experiment [1] (removal of 25 nM dasatinib, restimulation with 1 nM CEA-TCB) is “T cell functionality was restored upon dasatinib removal”.
